From US20250228821A1 (priority 2022, published 2025)

Tests used:
[1] = single dose 32 mg ruboxistaurin, healthy subjects (FIG. 5); cited from earlier work
[2] = human, microsomes, 1 μM
[3] = test system: protein kinase C; settings: cited from earlier work
[4] = in vivo; cited from earlier work
[5] = Blood/brain barrier penetration, pharmacokinetic study in rats; settings: rat, 1 mg/kg intravenously
Source text: Blood samples were collected from 3 animals at 0.25, 1-, and 4-hours post-dose. Brain samples were collected from 9 other rats, 3 each at 0.25, 1-, and 4-hours post-dose. Brain samples were weighted and homogenized with phosphate buffered saline.

[6] = test system: rats treated with dextroamphetamine; assay: Ultrasonic vocalizations in rats induced by dextroamphetamine; format: in vivo, male Wistar rats; settings: rats, 10, 30, 100 mg/kg IP 60 minutes before D-amphetamine 2.5 mg/kg IP (FIG. 9)
Procedure: 98 male Wistar rats were acclimated to the testing facility and handled daily (10 min/day) for 7 days prior to initiating the experiment. […] Rats were placed in white Plexiglas boxes (50×50×50 cm) and videotaped for 10 minutes to acclimate them to the test apparatus. Ultrasonic vocalizations (USV) were recorded with a microphone mounted 45 cm above the open field box to establish baseline, non-treatment related USV responses (50-kHz calls) in each rat. The next day, rats were injected with saline (1 mL/kg body weight, IP) and immediately placed into open field-testing boxes. USVs were recorded for 10 min.

increase of compound levels at 15 minutes by CYP3A4 inhibitor troleandomycin [2] [fold]	Compound	half-life (t½) [1] [h]	potency of protein kinase C inhibition, ruboxistaurin vs. N-desmethyl ruboxistaurin [3]	elimination half-life [4]	Mean brain ([5]; 0.25 hr) [ng/g]	Mean plasma ([5]; 0.25 hr) [ng/mL]	Mean brain ([5]; 1 hr) [ng/g]	Mean plasma ([5]; 1 hr) [ng/mL]	Mean brain ([5]; 4 hr) [ng/g]	Mean plasma ([5]; 4 hr) [ng/mL]	effect on ultrasonic appetitive vocalizations (50-kHz calls) [6]
23	CN(C)C[C@@H]1CCn2cc(c3ccccc32)C2=C(C(=O)NC2=O)c2cn(c3ccccc23)CCO1 [Ruboxistaurin]	5.25	equipotent								
	[Li] [lithium]			about 18 hours							
	(12E,32E,7S)-7-((methylamino)methyl)-22,25-dihydro-11H,21H,31H-6-oxa-1,3(3,1)-diindola-2(3,4)-pyrrolacyclononaphane-22,25-dione hydrochloride [N-desmethyl ruboxistaurin]	23.9			21.0	73.3	19.5	43.5	13.3	11.8	able to reduce ultrasonic appetitive vocalizations
